Data: article PMC11984586, “A novel spider toxin as a selective antagonist of the Kv1 subfamily of voltage-gated potassium channels through gating modulation” (The Journal of Biological Chemistry, 2025)
Bridge positions count the residues as written; N and C are the ends. Peptide text beside a SMILES is read from it.

Columns and labels:
Experiment in all cases: Whole-cell patch clamp, chimeric channel
Assay type in all cases: cell-based, human
[1] = system: Kv1.1/1.3 S1-S2 chimeric channel; conditions: +30 mV, mean ± SD
Description: (§1) To investigate the structural determinants underlying the differential regulatory effects of MrVIII on Kv1 channels, we employed a chimeric channel strategy. Using Kv1.3 as the template, the S1-S2, S3-S4, and S5-S6 transmembrane helices and their respective linkers from Kv1.1 were inserted to generate chimeras, generating the Kv1.3/1.1 S1-S2, Kv1.3/1.1 S3-S4, and Kv1.3/1.1 S5-S6 chimeric channels. […] These findings indicate that the S3-S4 is the key determinant for the differential inhibition of Kv1.1 and Kv1.3 by MrVIII. To further validate this conclusion, we constructed a reverse chimeric channel using Kv1.1 as the template, inserting the corresponding regions from Kv1.3 into Kv1.1. […] This finding more directly illustrates the exchange of the channel's voltage-dependence phenotype in toxin inhibition by swapping this S3-S4 between Kv1.1 and Kv1.3. […] In addition to confirming the differential role of S3-S4 between Kv1.1 and Kv1.3, we also substituted the S3-S4 of Kv1.4 and Kv1.7 into Kv1.3 to analyze MrVIII's inhibition profile. […] The IC50 for Kv1.3/1.7 S3-S4 could not be fitted, and inhi%(495 ms) was only 23.1 ± 10.0% (Fig. S2, E and F).
(§2) The cDNA of hKv1.1, hKv1.2, hKv1.3, rKv1.4, hKv1.5, mKv1.6, and hKv1.7 were subcloned into mammalian expression vectors pcDNA3.1 or pCMV-blank vectors, as well as other plasmids described previously ([35]). Channel mutants were generated by site-directed mutations. Briefly, the parental channel plasmid was amplified using a pair of oppositely directed primers harboring the designed mutation site, with KOD Fx (TOYOBO Co, Ltd). The resulting PCR mix was treated with FastDigest DpnI (Thermo Fisher Scientific) to remove the methylated template. Ten microliters of the digested product was then used to transform 100 μl E. coli DH5α competent cells. Transformants were randomly picked and sequenced to confirm the presence of the intended mutation.
(§3) CHO-K1 cells were selected for expressing Kv channels due to their lack of endogenous Kv channels, while HEK293 or ND7/23 cells were used for Nav and Cav channel expression. CHO-K1 cells were cultured in a Dulbecco's modified Eagle's medium/Ham's F-12 nutrient mixture (DMEM-F12) medium, and HEK293T and ND7/23 cells in DMEM medium, all supplemented with 10% fetal bovine serum and 1% penicillin-streptomycin (all from Gibco, Thermo Fisher Scientific, Inc) under standard conditions (37 °C, 5% CO2, and saturated humidity). These cell lines were purchased from Stem Cell Bank, Chinese Academy of Sciences. Channel plasmids were cotransfected with pEGFP-N1 (encoding GFP) into the respective cells using lipofectamine 2000, following the manufacturer's instructions (Invitrogen, Thermo Fisher Scientific, Inc.). Nav1.9-GFP plasmid was transfected into ND7/23 using the X-tremeGENE HP DNA Transfection Reagent (Roche). After 4 to 6 h transfection, cells were seeded onto poly-lysine–coated coverslips, and 24 to 36 h later, transfected cells were ready for patch-clamp analysis.
(§4) Patch clamp experiments were conducted using an electrophysiology platform comprising a MultiClamp 700B amplifier and an Axon Digidata 1550 AD/DA convertor (Axon Instruments). Data acquisition was performed with pClamp 10.5 software (Axon Instruments). All experiments were performed at room temperature.
(§5) For Kv current recordings, the bath solution contained (in mM) the following: 140 NaCl, 5 KCl, 1 MgCl2, 2 CaCl2, 10 glucose, and 10 Hepes (pH 7.3, adjusted with NaOH), and the pipette solution contained (in mM) the following: 140 KCl, 2.5 MgCl2, 11 EGTA, and 10 Hepes (pH 7.3, adjusted with KOH). Series resistance was maintained below 10 MΩ and compensated to 80%. Concentration–response curves were fitted by the Hill equation to determine the toxin's potency. Whole cell conductance (G) at each depolarizing voltage (V) was determined using the equation: G = I/(V−Vrev), where I is the current amplitude, and Vrev is the reversal potential. […]

[2] = system: Kv1.1/1.3 S3-S4 chimeric channel; conditions: +30 mV, 500 ms, mean ± SD, n = 4-5, read-out: IC50, Kv1.1/1.3 S3-S4 current (complete inhibition)
Description: as §1, §2, §3, §4, §5

[3] = system: Kv1.3/1.7 S3-S4 chimeric channel; conditions: current at 495 ms, +30 mV, IC50 could not be fitted, mean ± SD, n = 5-6
Description: as §1, §2, §3, §4, §5

[4] = system: Kv1.3/1.1 S3-S4 chimeric channel; conditions: +30 mV, mean ± SD
Description: as §1, §2, §3, §4, §5

[5] = system: Kv1.3/1.1 S1-S2 chimeric channel; conditions: +30 mV, 500 ms, holding −80 mV, mean ± SD, n = 4-5, read-out: IC50, Kv1.3/1.1 S1-S2 current
Description: as §1, §2, §3, §4, §5

CC[C@H](C)[C@@H]1NC(=O)[C@H](Cc2ccc(O)cc2)NC(=O)[C@H](CCC(N)=O)NC(=O)[C@@H]2CCCN2C(=O)[C@@H]2CSSC[C@H](NC(=O)[C@H](C)NC(=O)[C@H](CO)NC(=O)[C@H](CCC(=O)O)NC(=O)[C@H](CCC(=O)O)NC(=O)[C@@H](N)[C@@H](C)O)C(=O)NCC(=O)NCC(=O)N[C@@H](Cc3ccccc3)C(=O)N[C@@H](CC(N)=O)C(=O)N[C@@H](C)C(=O)N[C@@H](CCCNC(=N)N)C(=O)N[C@H]3CSSC[C@H](NC1=O)C(=O)N[C@@H](CCCCN)C(=O)NCC(=O)N[C@@H](Cc1c[nH]c4ccccc14)C(=O)N[C@@H](CCCNC(=N)N)C(=O)N[C@@H]([C@@H](C)O)C(=O)N[C@@H](CCCCN)C(=O)N[C@@H](CCCNC(=N)N)C(=O)N[C@H](C(=O)N[C@@H](CC(C)C)C(=O)N[C@@H](CC(N)=O)C(=O)N1CCC[C@H]1C(=O)O)CSSC[C@H](NC(=O)[C@H](CCCCN)NC(=O)[C@H](Cc1c[nH]cn1)NC(=O)[C@H](CC(C)C)NC(=O)[C@@H]1CCCN1C3=O)C(=O)N2 [MrVIII] (H-TEESACGGFNARCPLHKCCPQYICKGWRTKRCLNP-OH; disulfide 6-19, 13-24, 18-32; N-terminus and C-terminus assumed) was tested, and the IC50 ([1]; current at 50 ms, n = 4-5) was 103 ± 59.1 nM, the “inhi%(495 ms), Kv1.1/1.3 S1-S2 current” value ([1]; current at 495 ms) was 60.5 ± 18.5% and the IC50 [2] was 1.7 ± 0.6 nM. The “inhi%(495 ms), Kv1.3/1.7 S3-S4 current” value [3] was 23.1 ± 10.0%, the IC50 ([4]; current at 50 ms, n = 4-5) was 230 ± 123 nM and the “inhi%(495 ms), Kv1.3/1.1 S3-S4 current” value ([4]; current at 495 ms, negative = current enhanced) was −10.0 ± 13.9%. The IC50 [5] was 1.9 ± 1.1 nM.
